Test [1] concerns #311 plaque biofilm. Conditions: Fig 2B, cited from earlier work. On the procedure:
MICs of D-GL13K against cultures of all 10 plaque biofilm samples were in the range 1–4 μg/ml (Fig 2A). […] Potency of the rest of AAMPs candidates was tested against cultures of the highly adherent #311 sample. […] However, biofilms show increased resistance to antimicrobial agents than suspension cultures.

The test system of test [2] is supragingival dental plaque samples from 10 high caries risk subjects. Format: cell-based, plaque bacteria (human subjects). Conditions: 24 h. The source says: After a written informed consent was obtained from all participants, supragingival dental plaque samples from 10 high caries risk subjects were collected from either the occlusal or buccal margin of existing restorations at the University of Minnesota (Institutional Review Board #1403M48865). Each subject was examined for a formal caries risk assessment (CAMBRA) which classifies the caries risk status into 3 categories (low, moderate, high) considering a wide-range of biological predisposing factors and the protective factors, 8 factors each, in addition to the comprehensive clinical examination. All subjects had experienced active carious lesions and were still at high risk for future caries; otherwise, they were in good general health and had not taken antibiotics within 3 months of plaque sampling.
All dental plaque samples were collected using a sterile sickle scaler, and each sample was immediately deposited into a vial containing 1 ml pre-reduced anaerobic transfer medium (Anaerobe Systems, Morgan Hill, CA, USA). […] After 24 h of peptide treatment, absorbance at 600 nm was measured using a microtiter plate reader (Bio-Tek Instruments, Winooski, VT, USA). Plaque sample #311 was challenging in the planktonic state and, additionally, it formed the highest adherent biofilm using the Crystal Violet assay as measured by Dr. Robert S. Jones lab (data not shown). […]

Test [3] relates to #311 plaque sample. Conditions: cultures of highly adherent #311 plaque sample; several batches; n = 3; Fig 2C; cited from earlier work. On the procedure:
MICs of D-GL13K against cultures of all 10 plaque biofilm samples were in the range 1–4 μg/ml (Fig 2A). […] Potency of the rest of AAMPs candidates was tested against cultures of the highly adherent #311 sample. […] The controls, scrambled amino acid versions of D- ...

Test [4] deals with plaque biofilm along dentin-composite interface. Briefly: Multiphoton live/dead bioimaging of plaque biofilm along dentin-composite interfacial gap. Format: cell-based, plaque bacteria (human subject); bovine dentin. Conditions: D-GL13K-coated dentin. An excerpt: Roots of bovine teeth were used to prepare restored dentin-composite discs (Fig 1). After the crowns and apical thirds of each tooth were cut off, the root canals were enlarged to 2 mm in diameter, using 1.9-mm diameter fiber post drills (RelyX™ Fiber Post, 3M, St. Paul, MN, USA). The outer surface of the roots was trimmed down to 5 mm in diameter using a lathe to remove cementum and external layers of dentin. The obtained dentin tubes (5 mm in outer diameter and 2 mm in inner diameter) were water rinsed and stored in 0.5 chloramine T solution at 4 °C until the restorative procedures were performed. […]
Multiphoton images were acquired in a Multiphoton upright microscope equipped with an A1R laser scan head (Nikon FN1, Tokyo, Japan). […] Multiphoton excitation fluorescence was collected in the epi direction in the green (470–550) and orange-red (570–640) channels. […] Images were compiled and analyzed with NIS Elements software (Version 4.11.0, Nikon, Tokyo, Japan).
Quantification of red and green cells was done by standard co-localization analysis using Fiji image processing package. The percentage of red cells, which is usually associated to dead cells was calculated as: deadcells%=(totalvolumeofredcells/totalvolumeofcells)x100

Test [5] concerns #311 plaque biofilm. Nature of the test: Live/dead viability assay of plaque biofilms on peptide-coated HA discs. Format: cell-based, plaque bacteria (human subject). As to the method:
Hydroxyapatite (HA) discs (9.65 mm diameter by 1.52 mm thickness; Clarkson Chromatography Products, Williamsport, PA, USA) were sterilized by autoclaving to be used as plaque biofilm substrates. Both sides of each disc were etched by 32% phosphoric acid gel (Scotchbond™ Universal Etchant, 3M, St. Paul, MN, USA) for 15 s followed by 10 s water-rinse and 10 s air-dry. The discs were coated, incubated with a thin layer of peptide solution at 37 °C for 1 min, by 1 mg/ml of either D-GL13K or 1018 or DJK2 followed by 60 s air-dry. The control discs were etched, but were not coated with peptides. All samples were subject to ultrasonication in water bath for 15 min to remove any unattached peptides. X-ray Photoelectron Spectroscopy (XPS; SSX-100, Surface Science Laboratories; Al Kα X-ray, 1 mm spot-size, 35° take-off angle) was used to detect the atomic composition of the coated surfaces. […]
Working solution of fluorescent stains (L7012, LIVE/DEAD BacLight Bacterial Viability Kit, ThermoFisher Scientific, Waltham, MA, USA) was prepared by adding 3 μl of SYTO® 9 (live cell stain) and 3 μl of Propidium iodide (PI, dead cell stain) to 1 ml of sterilized Milli-Q® ultrapure water. […] The regrown biofilms were re-assessed using the same Live/Dead assay.

The test system of test [6] is plaque biofilm microbial community. Briefly: 16S rRNA gene sequencing of plaque biofilm community on AAMPs-coated HA discs. The format is cell-based, plaque bacteria (human subject). As to the method: PMA treatment was conducted for selective detection of viable bacteria. Prior to DNA extraction, the collected 1ml of bacterial cells was sub-divided into 0.5ml with PMA and the other 0.5ml without PMA treatment for each sample for fulfilling a pairs-matched statistical design (S1 Fig in S1 File). PMA was added to the assigned samples for a final concentration of 50 μM. The samples were incubated in the dark for 10 minutes on a shaker at room temperature. The samples were exposed to a PMA-Lite LED photolysis device light (Biotium, Fremont, CA, USA) to cross-link PMA to DNA for 15 minutes. Cells were pelleted by centrifuging at 5000x g for 10 minutes in preparation for genomic DNA extraction.
Genomic DNA was extracted from all samples; i.e., PMA and non-PMA treated bacteria. The protocol amended from Epicentre MasterPure™ DNA Purification Kit and Epicentre MasterPure™ Gram Positive DNA Purification Kit was followed (http://homings.forsyth.org/DNA%20Isolation%20Protocol.pdf, last access 03/31/2020).
The extracted DNA was submitted to the University of Minnesota Genomics Center for dual-indexed 16S rRNA gene amplicon sequencing using the V3-V4 region on the Illumina MiSeq platform 300PE.
Primers where removed with FilterandTrim, paired reads were merged with mergePairs, Bimeras where removed in with removeBimeraDenovo, and Silva version 132 was used for taxonomy identification. Sequences with a length < 251 and > 255 were removed as well as sequences with a total read count across all samples equal to 1. Further analysis of the ASV table was performed in R with the vegan, reshape2, ggplot2, grid, gridExtra, plyr, dplyr packages. The alpha diversity indices of Shannon, Simpson, Inverse Simpson (InvSympson) were calculated at 97% identity. Beta diversity analysis was performed by principal coordinates analysis (PCoA) based on Bray-Curtis distances at the Operational Taxonomic Unit (OTU) level. […]

Square brackets hold non-standard residues; d marks the D form. Ends that are not written are not given here. Peptide text beside a SMILES is read from it.

Turning to `CC[C@@H](C)[C@@H](NC(=O)[C@@H](CCCCN)NC(=O)CN)C(=O)N[C@@H](C(=O)N[C@H](CCCCN)C(=O)N[C@H](CC(C)C)C(=O)N[C@H](CCCCN)C(=O)N[C@H](C)C(=O)N[C@H](CO)C(=O)N[C@H](CC(C)C)C(=O)N[C@H](CCCCN)C(=O)N[C@H](CC(C)C)C(=O)N[C@H](CC(C)C)C(N)=O)[C@H](C)CC` [D-GL13K] (H-G[dK][dI][dI][dK][dL][dK][dA][dS][dL][dK][dL][dL]-NH2; N-terminus and C-terminus assumed), the “inhibition of #311 plaque biofilm” value in test [1] (25 μg/ml D-GL13K, 6-day-old biofilm) is given as “around 4 fold”. Moreover, in test [1] (highly adherent plaque biofilm), the “suppression of biofilm biovolume compared to controls” value was over 70%. In addition, the MIC is 1 to 4 µg/mL in test [2] and 1 to 2 µg/mL in test [3]. Besides, the “antibiofilm potency on 18-day-old interfacial plaque biofilm” value in test [4] (18-day-old biofilm, 3D rendering) is recorded as “maintained their antibiofilm potency”. Further, in test [4] (interfacial 9-day-old biofilm, average ± SD, n=6, control 31.5%± 8%, p = 0.018), the “Percentage of dead cells” value was 60% ± 10%. Also, the “live/dead assay, effect on bacteria” value in test [5] (D-GL13K-coated HA discs, 48 h biofilm growth) is “uniform and marked loss of the integrity of bacterial membranes”. Also, the “antibiofilm activity of challenged coatings” value in test [5] (coating challenged by 45 min ultrasonication or 45 min 30% acetic acid (pH 2.4), biofilms regrown 5 and 15 days) was “sustained antibiofilm activity”. Further, the “bacterial community richness (Shannon index) compared to controls” value in test [6] (48-h biofilm on coated HA discs, genus level) was “significantly reduced”. Also, in test [6] (ANCOM, coated HA discs), the “abundance of less abundant taxa Actinomyces and Gemella compared to controls” value was “significant reduction”. Besides, in test [6] (Shannon, Simpson, InvSimpson indices, coated HA discs), the “number and relative abundance of Streptococcus and Veillonella combined versus controls” value is “significant reduction”.
“L-GL13K: antimicrobial amphipathic peptide GL13K, L-amino acids (GKIIKLKASLKLL; not fully specified (C-terminus))”: the MIC in test [3] is 8 µg/mL.

These data come from PMC7331992, “Targeting the oral plaque microbiome with immobilized anti-biofilm peptides at tooth-restoration interfaces” (PLoS ONE, 2020).
